pIC50: −log10 of the molar value.

By pIC50 is commonly meant −log10 of the IC50, conventionally taken in molar units.

Sequence of human kinase Mps-1 (P33981 whole entry): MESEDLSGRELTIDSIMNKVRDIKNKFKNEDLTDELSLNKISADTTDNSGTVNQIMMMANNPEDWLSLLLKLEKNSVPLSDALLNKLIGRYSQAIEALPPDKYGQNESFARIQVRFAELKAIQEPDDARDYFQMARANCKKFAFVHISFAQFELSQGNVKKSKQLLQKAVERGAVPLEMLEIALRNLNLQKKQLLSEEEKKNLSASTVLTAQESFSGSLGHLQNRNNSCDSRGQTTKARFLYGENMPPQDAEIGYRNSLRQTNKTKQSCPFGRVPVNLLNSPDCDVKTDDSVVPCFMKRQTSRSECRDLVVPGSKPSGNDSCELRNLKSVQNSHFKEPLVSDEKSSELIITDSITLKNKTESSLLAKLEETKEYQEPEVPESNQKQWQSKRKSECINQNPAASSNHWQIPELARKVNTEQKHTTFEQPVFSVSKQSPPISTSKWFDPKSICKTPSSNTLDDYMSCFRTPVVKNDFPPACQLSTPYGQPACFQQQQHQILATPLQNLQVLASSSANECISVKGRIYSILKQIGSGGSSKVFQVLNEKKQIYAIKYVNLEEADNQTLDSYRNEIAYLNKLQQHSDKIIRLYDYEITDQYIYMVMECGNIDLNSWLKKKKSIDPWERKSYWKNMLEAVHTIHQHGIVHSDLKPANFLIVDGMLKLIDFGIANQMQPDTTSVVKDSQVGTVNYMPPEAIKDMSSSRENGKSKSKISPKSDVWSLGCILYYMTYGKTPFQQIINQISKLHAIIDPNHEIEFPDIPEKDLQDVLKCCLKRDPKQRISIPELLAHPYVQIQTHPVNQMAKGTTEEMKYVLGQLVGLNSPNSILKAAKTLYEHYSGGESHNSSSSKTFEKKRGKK

For this assay, the target named is human kinase Mps-1 (Homo sapiens (Human), UniProt P33981). As to the kind of experiment: Mps-1 Kinase Assay (TR-FRET). Format: biochemical. To be noted: N-terminally GST-tagged human full length recombinant Mps-1; 10 μM ATP; 1 μM peptide substrate; 60 min at 22° C.; read-out: Mps1 IC50. The method, then:
The human kinase Mps-1 phosphorylates a biotinylated substrate peptide. Detection of the phosphorylated product is achieved by time-resolved fluorescence resonance energy transfer (TR-FRET) from Europium-labelled anti-phospho-Serine/Threonine antibody as donor to streptavidin labelled with cross-linked allophycocyanin (SA-XLent) as acceptor. Compounds are tested for their inhibition of the kinase activity.
N-terminally GST-tagged human full length recombinant Mps-1 kinase (purchased from Invitrogen, Karslruhe, Germany, cat. no PV4071) was used. As substrate for the kinase reaction a biotinylated peptide of the amino-acid sequence […] (C-terminus in amide form, purchased from Biosynthan GmbH, Berlin) was used.
The concentration of Mps-1 in the assay was adjusted to the activity of the enzyme lot and was chosen appropriate to have the assay in the linear range, typical enzyme concentrations were in the range of about 1 nM (final conc. in the 5 μl assay volume).
The resulting mixture was incubated 1 h at 22° C. to allow the binding of the phosphorylated peptide to the anti-phospho(Ser/Thr)-Europium-antibody. Subsequently the amount of phosphorylated substrate was evaluated by measurement of the resonance energy transfer from the Europium-labelled anti-phospho(Ser/Thr) antibody to the Streptavidin-XLent.
A general note: In TR-FRET formats the signal depends on donor and acceptor labels being close together.
In the case of `CSc1nc(Br)cn2c(-c3ccc(C(=O)NC4CC4)cc3)cnc12` [Example 1, 4-[6-Bromo-8-(methylsulfanyl)imidazo[1,2-a]pyrazin-3-yl]-N-cyclopropylbenzamide], the pIC50 was 6.22.
In the case of `CS(=O)(=O)c1nc(-c2ccccc2)cn2c(-c3ccc(C(=O)NC4CC4)cc3)cnc12` (racemic) [Example 3A, N-Cyclopropyl-4-[8-(methylsulfonyl)-6-phenylimidazo[1,2-a]pyrazin-3-yl]benzamide], the pIC50 was 8.22.
With `O=C(NC1CC1)c1ccc(-c2cnc3c(SCc4ccco4)nc(-c4ccccc4)cn23)cc1` [Example 27, N-cyclopropyl-4-{8-[(2-furylmethyl)sulfanyl]-6-phenylimidazo[1,2-a]pyrazin-3-yl}benzamide], the pIC50 is 7.39.
With `CC(C)CS(=O)(=O)c1nc(-c2ccccc2)cn2c(-c3ccc(C(=O)NC4CC4)cc3)cnc12` [Example 22B, N-cyclopropyl-4-[8-(isobutylsulfonyl)-6-phenylimidazo[1,2-a]pyrazin-3-yl]benzamide] the figure was 8.19; with `O=C(NC1CC1)c1ccc(-c2cnc3c(SCC(F)(F)F)nc(-c4ccccc4)cn23)cc1` [Example 25, N-cyclopropyl-4-{6-phenyl-8-[(2,2,2-trifluoroethyl)sulfanyl]imidazo[1,2-a]pyrazin-3-yl}benzamide], 7.58.
With “(1R or 1S)-1-(4-{3-[4-(2-cyclopropyl-1H-imidazol-5-yl)phenyl]-8-(methylsulfanyl)imidazo[1,2-a]pyrazin-6-yl}phenyl)ethanol [Example 34B]” the figure was 7.24; with `CC(C)(C)OC(=O)NCCSc1nc(-c2ccccc2)cn2c(-c3ccc(C(=O)NC4CC4)cc3)cnc12` [Example 16, tert-butyl [2-({3-[4-(cyclopropylcarbamoyl)phenyl]-6-phenylimidazo[1,2-a]pyrazin-8-yl}sulfanyl)ethyl]carbamate], 7.17; with `CC(C)(C)CCSc1nc(-c2ccccc2)cn2c(-c3ccc(C(=O)NC4CC4)cc3)cnc12` [Example 10, N-Cyclopropyl-4-{8-[(3,3-dimethylbutyl)sulfanyl]-6-phenylimidazo[1,2-a]pyrazin-3-yl}benzamide], 7.07.
With `CCS(=O)(=O)c1nc(-c2ccccc2)cn2c(-c3ccc(C(=O)NC4CC4)cc3)cnc12` [Example 5B, N-Cyclopropyl-4-[8-(ethylsulfonyl)-6-phenylimidazo[1,2-a]pyrazin-3-yl]benzamide], the pIC50 is 8.11.
In the case of `CSc1nc(-c2ccncc2)cn2c(-c3ccc(-c4cnc(C5CC5)[nH]4)cc3)cnc12` [Example 31, 3-[4-(2-cyclopropyl-1H-imidazol-5-yl)phenyl]-8-(methylsulfanyl)-6-(pyridin-4-yl)imidazo[1,2-a]pyrazine] it was 6.90.
As for `CSc1nc(-c2ccccc2)cn2c(-c3ccc(-c4cnc(C5CC5)[nH]4)cc3)cnc12` [Example 29, 3-[4-(2-cyclopropyl-1H-imidazol-5-yl)phenyl]-8-(methylsulfanyl)-6-phenylimidazo[1,2-a]pyrazine], the pIC50 is 6.26.
For the compound `CCCCCSc1nc(-c2ccccc2)cn2c(-c3ccc(C(=O)NC4CC4)cc3)cnc12` [Example 17, N-cyclopropyl-4-[8-(pentylsulfanyl)-6-phenylimidazo[1,2-a]pyrazin-3-yl]benzamide], the pIC50 was 7.10.

For the origin of these results see US9468642B2, “Imidazopyrazines” (BAYER INTELLECTUAL PROPERTY GMBH, priority 2011, dated 2016).
